The values that follow come from PubChem BioAssay (NCI).

Some test systems named below: HCC-2998 colon; SNB-75 CNS; SK-OV-3 ovarian; T-47D breast; NCI-H226 lung; A498 renal; NCI/ADR-RES ovarian; OVCAR-3 ovarian; MOLT-4 leukemia; OVCAR-4 ovarian; SK-MEL-5 melanoma; NCI-H460 lung; LOX IMVI melanoma; HS 578T breast; SF-268 CNS.
Holding throughout (assay): DTP human tumour cell line panel, 48 h

Each structure is given as a SMILES string.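 96-well plates; 48 h exposure; 5 concentrations. Endpoints by linear interpolation between flanking doses. Not reached: highest tested concentration assigned. TGI marks complete inhibition of growth.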 Some results are limits rather than exact numbers.

For the molecule `O=C(CCl)N1CCCCC1C1(c2cc3ccccc3[nH]2)OCCO1` (stereo not given), the total growth inhibition concentration (TGI) in the test with HCC-2998 colon was found to be 26.9 µM; in the test with SNB-75 CNS it was 7.3 µM; in the test on SK-OV-3 ovarian it was 20.2 µM; in the test with T-47D breast it was 26 µM; in the test on NCI-H226 lung, 16.3 µM; with A498 renal it was 11.8 µM. Moreover, the TGI in the test on NCI/ADR-RES ovarian is 14.6 µM; in the test on OVCAR-3 ovarian, 5.34 µM; in the test with MOLT-4 leukemia it was 15.8 µM; with OVCAR-4 ovarian it was 9.28 µM; with SK-MEL-5 melanoma, 22.6 µM; in the test on NCI-H460 lung, greater than 34.5 µM. Further, the TGI was 0.141 µM in the test with LOX IMVI melanoma, 13.9 µM with HS 578T breast and 15.4 µM in the test with SF-268 CNS.

For the molecule `CN(C)c1ccc(N=Nc2cccc3ccoc23)cc1`, the total growth inhibition concentration (TGI) in the test with HCC-2998 colon, in the test with SNB-75 CNS, in the test on SK-OV-3 ovarian, with T-47D breast, with NCI-H226 lung and with A498 renal was greater than 100 µM in each case. The total growth inhibition concentration (TGI) in the test on NCI/ADR-RES ovarian, in the test on OVCAR-3 ovarian, in the test on MOLT-4 leukemia, in the test on OVCAR-4 ovarian, in the test with SK-MEL-5 melanoma and in the test with NCI-H460 lung was greater than 100 µM throughout. Also, the concentration for total growth inhibition (TGI) in the test with LOX IMVI melanoma, with HS 578T breast and in the test on SF-268 CNS was greater than 100 µM each time.

On to `NCC(=O)C(O)C(O)C(O)CO` (stereo not given), for which the TGI with HCC-2998 colon, with SNB-75 CNS, in the test on SK-OV-3 ovarian, in the test on T-47D breast, in the test with NCI-H226 lung and with A498 renal was greater than 100 µM in each case. The total growth inhibition concentration (TGI) in the test on NCI/ADR-RES ovarian, with OVCAR-3 ovarian, with MOLT-4 leukemia, in the test with OVCAR-4 ovarian, in the test with SK-MEL-5 melanoma and in the test on NCI-H460 lung was greater than 100 µM throughout. The total growth inhibition concentration (TGI) with LOX IMVI melanoma, with HS 578T breast and in the test on SF-268 CNS was greater than 100 µM each time.

As to `O=C(NO)c1cccc(OCc2ccc(Br)cc2)c1`, the total growth inhibition concentration (TGI) is 28.4 µM in the test on HCC-2998 colon; greater than 54.1 µM in the test with SNB-75 CNS; greater than 55.7 µM in the test on SK-OV-3 ovarian; 23.9 µM in the test with T-47D breast; 27.6 µM with NCI-H226 lung; 32.2 µM in the test on A498 renal. The TGI in the test with NCI/ADR-RES ovarian is 28.4 µM; with OVCAR-3 ovarian, greater than 48.1 µM; in the test on MOLT-4 leukemia it was 18.3 µM; in the test on OVCAR-4 ovarian, greater than 100 µM; in the test with SK-MEL-5 melanoma, greater than 27.2 µM; in the test on NCI-H460 lung, 14 µM. In addition, the TGI was greater than 34.8 µM in the test with LOX IMVI melanoma, 75.4 µM in the test on HS 578T breast and 38.1 µM in the test on SF-268 CNS.

As for `O=C(NNC(=S)Nc1ccccc1)C12CC3CC(CC(C3)C1)C2`, the total growth inhibition concentration (TGI) with HCC-2998 colon is greater than 95.7 µM; with SNB-75 CNS, greater than 92.9 µM; in the test with SK-OV-3 ovarian, greater than 100 µM; in the test with T-47D breast, greater than 100 µM; in the test with NCI-H226 lung it was greater than 86.6 µM; in the test with A498 renal it was greater than 91.4 µM. For the same molecule, the TGI is 59.7 µM in the test on NCI/ADR-RES ovarian; greater than 67.7 µM in the test with OVCAR-3 ovarian; 60 µM in the test with MOLT-4 leukemia; greater than 100 µM in the test on OVCAR-4 ovarian; 42.6 µM in the test with SK-MEL-5 melanoma; greater than 100 µM with NCI-H460 lung. The figures for the TGI in the test on LOX IMVI melanoma, in the test with HS 578T breast and with SF-268 CNS were greater than 91.9 µM, greater than 100 µM and greater than 100 µM, respectively.

`COC(=O)c1ccccc1C1CN=NC12Cc1c(C)cc(C)cc1C2=O` (stereo not given): the TGI in the test with HCC-2998 colon, in the test on SNB-75 CNS, in the test with SK-OV-3 ovarian, in the test with T-47D breast, with NCI-H226 lung and in the test with A498 renal was greater than 100 µM in each case. Also, the TGI in the test with NCI/ADR-RES ovarian, in the test on OVCAR-3 ovarian, in the test on MOLT-4 leukemia, in the test on OVCAR-4 ovarian, in the test on SK-MEL-5 melanoma and in the test with NCI-H460 lung was greater than 100 µM throughout. Also, the TGI in the test on LOX IMVI melanoma, in the test on HS 578T breast and with SF-268 CNS was greater than 100 µM throughout.

As to `Cc1ccc2c(c1)C(=O)/C(=C1/CCc3ccc(C)cc31)C2`, the TGI in the test with HCC-2998 colon was greater than 100 µM; in the test with SNB-75 CNS, 71.1 µM; in the test with SK-OV-3 ovarian it was greater than 100 µM; in the test with T-47D breast it was greater than 100 µM; with NCI-H226 lung, greater than 100 µM; in the test with A498 renal, greater than 100 µM. For the same molecule, the concentration for total growth inhibition (TGI) in the test on NCI/ADR-RES ovarian, in the test with OVCAR-3 ovarian, in the test with MOLT-4 leukemia, in the test on OVCAR-4 ovarian, in the test with SK-MEL-5 melanoma and in the test with NCI-H460 lung was greater than 100 µM in each case. The concentration for total growth inhibition (TGI) with LOX IMVI melanoma, in the test on HS 578T breast and with SF-268 CNS was greater than 100 µM in each case.

Turning to `CCCSc1cc(Cl)c(C)cc1S(=O)(=O)n1cc[nH]c1=O`, the TGI with HCC-2998 colon, in the test with SNB-75 CNS, with SK-OV-3 ovarian, with T-47D breast, with NCI-H226 lung and in the test on A498 renal was greater than 100 µM in each case. Besides, the TGI with NCI/ADR-RES ovarian, in the test with OVCAR-3 ovarian, in the test with MOLT-4 leukemia, with OVCAR-4 ovarian, with SK-MEL-5 melanoma and in the test with NCI-H460 lung was greater than 100 µM throughout. The TGI with LOX IMVI melanoma, with HS 578T breast and in the test with SF-268 CNS was greater than 100 µM throughout.

Take `CC(=O)C1(c2ccccc2)CCN(Cn2sc3nc(C)cc(C)c3c2=O)CC1`: the TGI was 72.7 µM with HCC-2998 colon; 57.3 µM with SNB-75 CNS; greater than 100 µM in the test with SK-OV-3 ovarian; greater than 100 µM with T-47D breast; greater than 100 µM in the test with NCI-H226 lung; greater than 100 µM in the test with A498 renal. In addition, the total growth inhibition concentration (TGI) in the test on NCI/ADR-RES ovarian was greater than 100 µM; in the test with OVCAR-3 ovarian, greater than 100 µM; in the test on MOLT-4 leukemia it was 77.3 µM; in the test on OVCAR-4 ovarian, 48 µM; with SK-MEL-5 melanoma, greater than 100 µM; in the test on NCI-H460 lung, 34.1 µM. The concentration for total growth inhibition (TGI) was 57.8 µM with LOX IMVI melanoma, greater than 100 µM in the test with HS 578T breast and greater than 100 µM with SF-268 CNS.
